Data as given in the supplement of paper PMC10627819.

Assays:
S. pneumoniae D39V [1] = experiment: Bliss interaction score (quartile over a dose matrix) (fitness difference); higher = more antagonism (negative = synergy)
Procedure, shortened: (§1)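 Values were capped at 1 after dividing OD595 at stationary-phase entry by the plate's robust no-drug mean. This ratio is fitness, and single-drug fitness was inferred from the combination data. The Bliss score is observed minus product-expected fitness, given as quartiles over technical, biological and donor/recipient replicates.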

S. aureus Newman [2] = experiment: as above
Procedure, shortened: as §1

S. aureus DSM 20231 [3] = experiment: as above
Procedure, shortened: as §1

B. subtilis 168 [4] = experiment: as above
Procedure, shortened: as §1

S. pneumoniae D39V [5] = experiment: fitness (endpoint OD595 vs no drug) (fraction); higher = more growth
Procedure, shortened: (§2)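 In 384-well plates at 37 °C, cultures began at OD595 0.01 in 30 µl, with 55 µl used for S. pneumoniae. OD595 readings every 30 min for 14 h were corrected by the first reading. Fitness divides the stationary-phase transition optical density by the robust mean of no-drug control wells. The result is capped at 1.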

S. aureus Newman [6] = experiment: as above
Procedure, shortened: as §2

S. aureus DSM 20231 [7] = experiment: as above
Procedure, shortened: as §2

B. subtilis 168 [8] = experiment: as above
Procedure, shortened: as §2
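Throughout, for Bliss interaction score (quartile over a dose matrix): first quartile when negative (synergy) and third quartile when positive (antagonism).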

O=C(O[C@@H]1Cc2c(O)cc(O)cc2O[C@@H]1c1cc(O)c(O)c(O)c1)c1cc(O)c(O)c(O)c1 [EGCG] + CC1=C\[C@@H](O)CC(=O)Cc2nc(co2)C(=O)N2CCC=C2C(=O)O[C@H](C(C)C)[C@H](C)/C=C/C(=O)NC\C=C\1 [Virginiamycin M1]
Conditions	Bliss interaction score
B. subtilis 168 [4]	0.0619
S. aureus DSM 20231 [3]	0.119
S. aureus Newman [2]	0.0651
S. pneumoniae D39V [1]	-0.092

fitness, one replicate
Conditions	first compound 12.5 µg/mL	first compound 25 µg/mL	first compound 50 µg/mL
S. aureus DSM 20231 [7], partner 0.5 µg/mL	0.807	0.715	0.694
S. aureus DSM 20231 [7], partner 1 µg/mL	0.67	0.65	0.543
S. aureus Newman [6], partner 0.5 µg/mL	0.678	0.728	0.682
S. aureus Newman [6], partner 1 µg/mL	0.702	0.715	0.677
S. aureus Newman [6], partner 2 µg/mL	0.671	0.624	0.622
S. pneumoniae D39V [5], partner 0.15 µg/mL	0.891	0.872	0.883
S. pneumoniae D39V [5], partner 0.3 µg/mL	0.823	0.847	0.842

fitness
Conditions	partner 0.0625 µg/mL	partner 0.125 µg/mL	partner 0.25 µg/mL	partner 0.5 µg/mL	partner 1 µg/mL	partner 2 µg/mL
B. subtilis 168 [8], first compound 6.25 µg/mL	0.973	0.974	0.997	–	–	–
S. aureus DSM 20231 [7], first compound 12.5 µg/mL	0.86	0.931	0.686	–	–	–
S. aureus DSM 20231 [7], first compound 25 µg/mL	0.859	≥ 1	0.904	–	–	–
S. aureus DSM 20231 [7], first compound 50 µg/mL	0.76	0.986	0.82	–	–	–
S. aureus Newman [6], first compound 12.5 µg/mL	0.811	0.858	0.817	–	–	–
S. aureus Newman [6], first compound 25 µg/mL	0.868	0.897	0.865	–	–	–
S. aureus Newman [6], first compound 50 µg/mL	0.925	0.96	0.878	–	–	–
S. pneumoniae D39V [5], first compound 12.5 µg/mL	–	–	–	0.973	0.958	0.921
S. pneumoniae D39V [5], first compound 25 µg/mL	–	–	–	≥ 1	≥ 1	0.89
S. pneumoniae D39V [5], first compound 50 µg/mL	–	–	–	0.965	0.946	0.889

O=C(O[C@@H]1Cc2c(O)cc(O)cc2O[C@@H]1c1cc(O)c(O)c(O)c1)c1cc(O)c(O)c(O)c1 [EGCG] + CCN(CC)CCOC(=O)c1ccc(N)cc1 [Procaine]
Conditions	Bliss interaction score
B. subtilis 168 [4]	-0.0744
S. aureus DSM 20231 [3]	0.0893
S. aureus Newman [2]	-0.124
S. pneumoniae D39V [1]	0.0572

fitness
Conditions	partner 85.5 µg/mL	partner 171 µg/mL	partner 342 µg/mL
B. subtilis 168 [8], first compound 6.25 µg/mL	0.913	0.882	0.88
B. subtilis 168 [8], first compound 12.5 µg/mL	0.715	0.75	0.599
B. subtilis 168 [8], first compound 25 µg/mL	–	–	0.227
S. aureus DSM 20231 [7], first compound 12.5 µg/mL	0.821	0.821	0.833
S. aureus DSM 20231 [7], first compound 25 µg/mL	0.809	0.858	0.886
S. aureus DSM 20231 [7], first compound 50 µg/mL	–	0.854	–
S. aureus Newman [6], first compound 12.5 µg/mL	0.729	0.764	0.77
S. aureus Newman [6], first compound 25 µg/mL	0.641	0.71	0.78
S. pneumoniae D39V [5], first compound 12.5 µg/mL	0.965	0.984	0.912
S. pneumoniae D39V [5], first compound 25 µg/mL	0.969	≥ 1	0.969
S. pneumoniae D39V [5], first compound 50 µg/mL	0.996	0.903	≥ 1

O=C(O[C@@H]1Cc2c(O)cc(O)cc2O[C@@H]1c1cc(O)c(O)c(O)c1)c1cc(O)c(O)c(O)c1 [EGCG] + CN1C2=CC=CC=C2N=C3C1=CC=CC3=O [Pyocyanin]
Conditions	Bliss interaction score
B. subtilis 168 [4]	0.187
S. aureus DSM 20231 [3]	-0.114
S. aureus Newman [2]	-0.0806
S. pneumoniae D39V [1]	-0.0423

fitness
Conditions	first compound 6.25 µg/mL	first compound 12.5 µg/mL	first compound 25 µg/mL	first compound 50 µg/mL
B. subtilis 168 [8], partner 1.25 µg/mL	0.81	0.898	–	–
B. subtilis 168 [8], partner 2.5 µg/mL	0.831	0.805	0.638	–
B. subtilis 168 [8], partner 5 µg/mL	0.662	0.645	0.485	–
S. aureus DSM 20231 [7], partner 1.25 µg/mL	–	0.677	0.689	–
S. aureus DSM 20231 [7], partner 2.5 µg/mL	–	0.693	0.682	0.624
S. aureus DSM 20231 [7], partner 5 µg/mL	–	0.555	0.56	0.492
S. aureus Newman [6], partner 1.25 µg/mL	–	0.679	0.616	–
S. aureus Newman [6], partner 2.5 µg/mL	–	0.647	0.548	–
S. aureus Newman [6], partner 5 µg/mL	–	0.403	0.409	0.315
S. pneumoniae D39V [5], partner 0.325 µg/mL	–	0.986	≥ 1	≥ 1
S. pneumoniae D39V [5], partner 0.65 µg/mL	–	0.976	0.98	0.925
S. pneumoniae D39V [5], partner 1.3 µg/mL	–	0.638	0.628	0.75

O=C(O[C@@H]1Cc2c(O)cc(O)cc2O[C@@H]1c1cc(O)c(O)c(O)c1)c1cc(O)c(O)c(O)c1 [EGCG] + CN(N=O)C(=O)N[C@@H](C=O)[C@@H](O)[C@H](O)[C@H](O)CO [Streptozotocin]
Conditions	Bliss interaction score
B. subtilis 168 [4]	-0.0853
S. aureus DSM 20231 [3]	-0.0464
S. aureus Newman [2]	-0.0449
S. pneumoniae D39V [1]	0.0662

fitness
Conditions	first compound 6.25 µg/mL	first compound 12.5 µg/mL	first compound 25 µg/mL	first compound 50 µg/mL
B. subtilis 168 [8], partner 0.15 µg/mL	0.913	0.571	–	–
B. subtilis 168 [8], partner 0.3 µg/mL	0.856	0.62	0.449	–
B. subtilis 168 [8], partner 0.6 µg/mL	0.915	0.515	0.391	–
S. aureus DSM 20231 [7], partner 0.15 µg/mL	–	0.763	0.702	0.683
S. aureus DSM 20231 [7], partner 0.3 µg/mL	–	0.643	0.635	0.658
S. aureus DSM 20231 [7], partner 0.6 µg/mL	–	0.597	0.595	0.499
S. aureus Newman [6], partner 0.15 µg/mL	–	0.711	0.804	0.783
S. aureus Newman [6], partner 0.3 µg/mL	–	0.737	0.477	0.752
S. aureus Newman [6], partner 0.6 µg/mL	–	0.404	0.416	0.572
S. pneumoniae D39V [5], partner 1.2 µg/mL	–	0.911	0.947	0.919
S. pneumoniae D39V [5], partner 2.4 µg/mL	–	0.891	0.935	0.91
S. pneumoniae D39V [5], partner 4.8 µg/mL	–	0.907	≥ 1	≥ 1
